The target of test [1] is T1, PDE5A1 (phosphodiesterase type 5) (Homo sapiens, UniProt O76074).
T1 construct: gene PDE5A
The experiment in a line: PDE5A1 assay kit (BPS Bioscience), fluorescence polarization with FAM-cyclic-3', […]'-GMP. In kind it is biochemical. (In general: In fluorescence polarisation assays a small probe gives low polarisation when free and higher when bound to something large.)

Another test has as its target T2, tubulin (Sus scrofa, UniProt P02550+P02554).
T2 construct: with alpha-tubulin
The experiment in a line: in vitro pure tubulin polymerization assay (Cytoskeleton kit, […] nm), […] inhibition at […]. The format is biochemical. Conditions: read-out: % inhibition at 1000 nM.

Consider 2 molecules from publication PMC7460560, “Discovery of Novel Agents on Spindle Assembly Checkpoint to Sensitize Vinorelbine-Induced Mitotic Cell Death against Human Non-Small Cell Lung Cancers” (International Journal of Molecular Sciences, 2020).

In general, IC50 refers to the concentration that inhibits the measured activity by half. One may read the inhibition as how much of the control response was suppressed.

T2 sequence (P02554 whole entry): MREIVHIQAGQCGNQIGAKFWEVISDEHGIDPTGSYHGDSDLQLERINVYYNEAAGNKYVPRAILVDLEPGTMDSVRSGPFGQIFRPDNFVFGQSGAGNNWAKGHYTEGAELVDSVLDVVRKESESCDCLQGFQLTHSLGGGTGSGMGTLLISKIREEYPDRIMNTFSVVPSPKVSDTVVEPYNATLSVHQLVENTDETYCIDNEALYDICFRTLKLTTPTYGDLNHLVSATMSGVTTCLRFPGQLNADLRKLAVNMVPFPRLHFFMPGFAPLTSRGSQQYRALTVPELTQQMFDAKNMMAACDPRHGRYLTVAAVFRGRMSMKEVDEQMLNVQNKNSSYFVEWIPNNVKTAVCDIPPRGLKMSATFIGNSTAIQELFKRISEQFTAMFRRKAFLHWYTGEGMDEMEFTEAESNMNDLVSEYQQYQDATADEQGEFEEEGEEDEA
T2 sequence (P02550 whole entry): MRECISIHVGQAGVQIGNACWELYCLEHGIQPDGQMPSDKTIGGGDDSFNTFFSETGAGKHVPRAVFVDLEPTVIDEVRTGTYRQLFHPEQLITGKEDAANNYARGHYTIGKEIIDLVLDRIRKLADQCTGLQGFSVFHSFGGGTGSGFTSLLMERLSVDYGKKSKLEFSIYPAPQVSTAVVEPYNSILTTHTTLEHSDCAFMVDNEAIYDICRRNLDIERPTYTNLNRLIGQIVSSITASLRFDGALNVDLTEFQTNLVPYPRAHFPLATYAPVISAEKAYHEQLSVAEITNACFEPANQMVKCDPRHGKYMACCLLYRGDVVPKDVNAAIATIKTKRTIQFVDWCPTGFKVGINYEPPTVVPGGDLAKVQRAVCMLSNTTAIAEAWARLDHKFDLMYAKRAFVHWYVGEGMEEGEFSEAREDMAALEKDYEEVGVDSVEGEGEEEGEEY

In the case of `CCCn1nnc2c(OC)nc(-c3cc(S(=O)(=O)N4CCN(C)CC4)ccc3OC)nc21` [YL-9], in test [1], the IC50 was determined as 0.632 µM.
On to `CCC1=C[C@@H]2CN(C1)Cc1c([nH]c3ccccc13)[C@@](C(=O)OC)(c1cc3c(cc1OC)N(C)[C@H]1[C@@](O)(C(=O)OC)[C@H](OC(C)=O)[C@]4(CC)C=CCN5CC[C@]31[C@@H]54)C2` [vinorelbine], for which, on tubulin, the inhibition at 1 µM turned out to be 16.7%.
